Measured values published in patent publication US20180015088A1, “SITE SPECIFIC DOSING OF A BTK INHIBITOR” (Principia Biopharma Inc., priority 2014, published 2018).
Where two headings read alike, the source gives them in different places.

Tests used:
[1] = Solubility of Compound (I) at low pH; assay type: physicochemical
[2] = Site specific gastrointestinal dosing (oral gavage, intraduodenal, intrajejunal) in rats, plasma AUC; assay type: in vivo, Wister-Hans rats; settings: for AUC: Wister-Hans, rat, plasma
Experimental: Compound (I) was dosed in 10 mg/mL aqueous citrate solution at 20 mg/kg to Wister-Hans rats. Free base of Compound (I) was dissolved in aqueous solution of citric acid (containing 0.5 equivalents of anhydrous citiric acid) . The experiment was repeated 3 times each with 2 separate arms, and one oral (PO) gavage arm was included in each study. Intra-jejunal (IJ) and intra-duodenal (ID) dosing was done in cannulated rats. In the first study, there was about 40-fold increase in the AUC for the IJ-dosed group compared to the PO group, and the major metabolite, present in the PO arm was reduced by 20 fold in the IJ-group.

[3] = tested on: intestinal tissue (stomach, duodenum, jejunum, ileum, colon); experiment: In vitro permeation in Ussing chambers through different intestinal regions of rat; assay type: in vitro ADME, Sprague-Drawley rats; settings: 100 uM, mucosal to serosal, distal regions compared to stomach or duodenum, FIG. 7
Experimental: Reagents: 10× Krebs-Ringer buffer (KRB) comprised of 1.26M NaCl (Promega, Madison, Wis.), 25mM KCl, 250 mM NaHCO3, 12 mM NaH2PO4, 12 mM MgCl2, 25 mM CaCl2 and 18 g/L D-Glucose (all from Sigma Aldrich, St. Louis, Mo.) prepared and stored individually to prevent crystallization. Dilute to 1× working concentration prior to use and pH adjusted with either carbogen perfusion for 20 mins to pH 7.4 (oxygenated KRB) or 1M HCl (Alfar Aesar, Ward Hill, Mass.) to pH 3.5, 6.5 or 7.4. 0.1% Phenol red, Antipyrine and Atenolol were purchased from Sigma Aldrich, St. Louis, Mo.
Harvest and preparation of intestinal tissue: 4 to 9 month old adult female virgin Sprague-Drawley rats (Harlan Laboratories, Livermore, Calif.) were acclimated in-house for a minimum of 3 days prior to experimentation. Adolescent and geriatric animals should be avoided to prevent age-related differences in gastro-intestinal morphology and function. Animals were housed under IACUC-approved husbandry protocols including 12-hour light and 12-hour dark cycles, and allowed standard chow and water ad libitum. Tissue harvest should be performed one animal at a time to maintain tissue viability. […]

[4] = Solubility of the salt in water at ambient temperature; assay type: physicochemical
Experimental: To the solution of (R)-2-[3-[4-amino-3-(2-fluoro-4-phenoxy-phenyl)pyrazolo[3,4-d]pyrimidin-1-yl]piperidine-1-carbonyl]-4-methyl-4-[4-(oxetan-3-yl)piperazin-1-yl]pent-2-enenitrile (having about 9/1 E/Z ratio) (4.2 g) in EtOAc (60 mL, 15 vol) was added sulfuric acid (0.31 g, 0.17 mL, 0.5 eq) in EtOAc (20 mL, 5 vol) at ambient temperature. The suspension was stirred at ambient temperature for ˜2 hr and then 40° C. for 4 hr and then at ambient temperature for at least 1 hr. After filtration and drying at ambient temperature under vacuum, 1.5 g of white powder was obtained. Solubility of the hemi-sulfate at ambient temperature was >100 mg/mL in water.

solubility at low pH [1] | increase in AUC, ID compared to oral gavage ([2]; ID vs PO) | metabolic stability by site of administration ([2]; IJ dosing compared to oral gavage) | AUC ([2]; 20 mg/kg, intraduodenum cannula, 20 mg/kg, aqueous citrate solution, read-out: AUC, intraduodenal (ID) dosing) | AUC ([2]; other: intrajejunal, 20 mg/kg, intrajejunum cannula, 20 mg/kg, aqueous citrate solution, read-out: AUC, intrajejunal (IJ) dosing) | AUC ([2]; po, 20 mg/kg, oral (PO) gavage, 20 mg/kg, 10 mg/mL aqueous citrate solution, read-out: AUC, oral gavage) | AUC, intrajejunal (IJ) dosing ([2]; intrajejunum cannula, 20 mg/kg, aqueous citrate solution) | AUC, oral gavage ([2]; oral (PO) gavage, 20 mg/kg, 10 mg/mL aqueous citrate solution) | permeability (Papp) by region of the GI tract [3] | solubility [4] | SMILES
greater than 10 % (w/v) | approximately 2 fold | more metabolically stable | 1780 ng·h/mL | 14400 ng·h/mL | 668 to 1640 ng·h/mL | 26,800 ng*hr/ml | 994 ng·h/mL | statistically increased permeabilities | – | CC(C)(C=C(C#N)C(=O)N1CCCC(n2nc(-c3ccc(Oc4ccccc4)cc3F)c3c(N)ncnc32)C1)N1CCN(C2COC2)CC1 [Compound (I), (R)-2-[3-[4-amino-3-(2-fluoro-4-phenoxy-phenyl)pyrazolo[3,4-d]pyrimidin-1-yl]piperidine-1-carbonyl]-4-methyl-4-[4-(oxetan-3-yl)piperazin-1-yl]pent-2-enenitrile]
– | – | – | – | – | – | – | – | – | > 100 mg/mL | CC(C)(C=C(C#N)C(=O)N1CCC[C@@H](n2nc(-c3ccc(Oc4ccccc4)cc3F)c3c(N)ncnc32)C1)N1CCN(C2COC2)CC1 [hemi-sulfate, (R)-2-[3-[4-amino-3-(2-fluoro-4-phenoxy-phenyl)pyrazolo[3,4-d]pyrimidin-1-yl]piperidine-1-carbonyl]-4-methyl-4-[4-(oxetan-3-yl)piperazin-1-yl]pent-2-enenitrile]
